Tested on: intrinsic coagulation pathway
Assay: AXIOMATIC-SSP pharmacodynamics: activated partial thromboplastin time (aPTT) and percent change from baseline
Format: in vivo, human
Details: for aPTT Percent Change from Baseline Mean / aPTT Percent Change from Baseline Median / aPTT Value Mean / aPTT Value Median: 50 mg BID

C[C@@H]1CCC[C@H](n2cnc(-c3cc(Cl)ccc3-n3cc(Cl)nn3)cc2=O)c2cc(ccn2)-c2c(cnn2C(F)F)NC1=O [milvexian, (5R,9S)-9-(4-(5-chloro-2-(4-chloro-1H-1,2,3-triazol-1-yl)phenyl)-6-oxopyrimidin-1(6H)-yl)-21-(difluoromethyl)-5-methyl-21H-3-aza-1(4,2)-pyridina-2(5,4)-pyrazolacyclonaphan-4-one]
aPTT Percent Change from Baseline Mean (DAY 1 24 h, N 269): 85.17% | aPTT Percent Change from Baseline Median (DAY 1 24 h, N 269): 81.89% | aPTT Value Mean (DAY 1 24 h, N 269): 49.38 s | aPTT Value Median (DAY 1 24 h, N 269): 48.60 s | aPTT Percent Change from Baseline Mean (DAY 21 anytime, N 268): 115.62% | aPTT Percent Change from Baseline Median (DAY 21 anytime, N 268): 112.6% | aPTT Value Mean (DAY 21 anytime, N 268): 57.27 s | aPTT Value Median (DAY 21 anytime, N 268): 55.10 s | aPTT Percent Change from Baseline Mean (DAY 90 anytime, N 241): 97.32% | aPTT Percent Change from Baseline Median (DAY 90 anytime, N 241): 101.18% | aPTT Value Mean (DAY 90 anytime, N 241): 52.00 s | aPTT Value Median (DAY 90 anytime, N 241): 52.60 s | change in aPTT from baseline (milvexian treated groups): Dose-dependent increases

From US20260034130A1 (priority 2022, published 2026)
